{
  "source": "patent US11866455B2",
  "about": "“Gold(III) complex, a conjugate of the gold(III) complex, a pharmaceutical composition comprising the gold(III) complex and uses and a process for preparing the gold(III) complex” (UNIVERSIDAD DE ALMERIA, priority 2018, dated 2024)",
  "key": {"[1]": {"test_system": "MRSA methicillin resistant S. aureus", "experiment": "Antimicrobial activity (MIC) against S. aureus / MRSA", "assay_type": "cell-based", "conditions": "Staphylococcus aureus, Cli, Eri, Pen, Lvx"}, "[2]": {"test_system": "MRSA methicillin resistant S. aureus", "experiment": "Antibiofilm activity (MBIC) against MRSA", "assay_type": "cell-based", "conditions": "Cli, Eri, Pen, Lvx"}, "[3]": {"experiment": "Stability studies by 1H and 31P NMR", "assay_type": "physicochemical", "conditions": "for stability towards reducing agent (31P NMR): CD3CN/H2O", "procedure": "A solution of compound 2f in CD3CN (0.25 mL) was mixed with 0.25 mL of saline phosphate buffer (pH 7.4) in D2O and the mixture was monitored at 37° C. over three days through ^1H and ^31P NMR spectroscopy. […] Such observations show a substantial evidence for the stability of complexes 2 under physiological conditions.\nComplexes 2 are also stable in the conditions used for the biological activity assays, as evidenced by the ^31P NMR spectra of a solution of compound 2f in CD3CN (0.25 mL) and 0.25 mL of ISOsensitest culture broth prepared in D2O (FIG. 15).\nTo gain a more complete picture of the stability and the solution behavior of these gold(III) compounds 2, the spectral changes produced by addition of classical reducing agents, i.e. glutathione (GSH) and ascorbic acid (AsAc) were also examined. Thus, solutions of compound 2f in CD3CN (0.25 mL) were mixed with solutions containing equimolar amounts of either GSH or AsAc in 0.25 mL of H2O."}, "A. baumannii": {"test_system": "A. baumannii", "experiment": "MIC against A. baumannii, alone and in combination with colistine", "assay_type": "cell-based"}},
  "note": "Read-outs that look alike come from different tables or passages of the source.",
  "data": [
    {"compound": "C[C@H]1COc2c(N3CCN(C)CC3)c(F)cc3c(=O)c(C(=O)O)cn1c23", "note": "[Levofloxacin, levofloxacin]", "values": [
      {"measurement": "MIC", "setting": "[1]; MRSA, strain MRSA 1, resistance profile Cip", "result": 128, "unit": "µg/mL"},
      {"measurement": "MIC", "setting": "[1]; strain MRSA 2, resistance profile Gen, Cip, read-out: MIC", "result": 64, "unit": "µg/mL"},
      {"measurement": "MBIC", "setting": "[2]; strain MRSA 1, resistance profile Cip", "result": ">256", "unit": "mg/L"},
      {"measurement": "MBIC", "setting": "[2]; strain MRSA 2, resistance profile Gen, Cip", "result": 128, "unit": "mg/L"}
    ]},
    {"compound": "[Gold(III) 2-((diisopropylamino)(phenyl)phosphorothioyl)phenyl) (pirrolidin-1-dithiocarbamate)] hexafluorophosphate [Compound 2f]", "values": [
      {"measurement": "stability in the conditions of the biological activity assays", "setting": "[3]; CD3CN / ISOsensitest culture broth in D2O", "result": "stable"},
      {"measurement": "31P NMR signal of the complex (stability)", "setting": "[3]; CD3CN / saline phosphate buffer (pH 7.4) in D2O, 37° C., three days", "result": "remained unaltered"},
      {"measurement": "stability towards reducing agent (31P NMR)", "setting": "[3]; equimolar ascorbic acid (AsAc)", "result": "maintained its chemical integrity"},
      {"measurement": "stability towards reducing agent (31P NMR)", "setting": "[3]; equimolar glutathione (GSH)", "result": "maintained its chemical integrity"}
    ]},
    {"compound": "colistine", "values": [
      {"measurement": "MIC", "setting": "A. baumannii; each antibiotic separately", "result": 64, "unit": "µg/mL"},
      {"measurement": "MIC in combination", "setting": "A. baumannii; gold(III) complex and colistine used in combination", "result": 1, "unit": "µg/mL"}
    ]}
  ]
}
